Legend:
Cyp2C8 = biological target: T1, Cyp2C8 (Homo sapiens, UniProt P10632); test: CyP450-Inhibition, recombinant Cytochrome P450 isoenzymes, fluorometric assay; assay type: in vitro ADME; conditions: for IC50: recombinant CyP 450 enzyme, fluorescence-labelled substrate
T1 construct: host or cells: insect cells (named in the general description as the expression system for P450 cDNAs)
T1 sequence (P10632 1-490): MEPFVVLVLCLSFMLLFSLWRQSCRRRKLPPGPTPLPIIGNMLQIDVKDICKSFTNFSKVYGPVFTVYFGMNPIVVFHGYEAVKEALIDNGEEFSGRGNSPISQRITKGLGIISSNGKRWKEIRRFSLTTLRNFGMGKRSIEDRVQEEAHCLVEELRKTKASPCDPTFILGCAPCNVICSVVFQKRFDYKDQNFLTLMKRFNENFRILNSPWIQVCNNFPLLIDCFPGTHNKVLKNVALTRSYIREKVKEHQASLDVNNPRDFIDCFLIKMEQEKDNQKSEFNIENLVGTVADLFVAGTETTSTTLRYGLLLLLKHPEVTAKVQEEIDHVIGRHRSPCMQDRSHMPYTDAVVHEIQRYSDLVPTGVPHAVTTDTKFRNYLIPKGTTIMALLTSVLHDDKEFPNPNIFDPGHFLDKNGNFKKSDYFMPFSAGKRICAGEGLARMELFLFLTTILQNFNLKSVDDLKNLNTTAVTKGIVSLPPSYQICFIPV
From the text: (§1) This can be shown according to the following test system: Human liver microsomes or high level expression of cDNAs encoding Cytochrome P450 in insect cells provide a flexible source of materials for several in vitro measurement methods. A microtiter plate-based, direct fluorometric assay for the activities of any one or more of the principal drug metabolizing enzymes CYP1A2, CYP2C8, CYP2C9, CYP2C19, CYP2D6 and/or CYP3A4 is used in order to assess the potential for drug candidates to inhibit cytochrome P450.
(§2) Fluorescent marker substrates are incubated at concentrations close to their Michaelis-Men-ten affinity constant, Km. Inhibitors are tested in the 1 to 10 μM concentration range. 50% inhibition concentration (IC50 values) are estimated by non-linear regression of a two parameter model equation where the lower data limit is 0, i.e. the data are background corrected, and the upper data limit is 100, i.e. the data are range corrected. The equation assumes that y falls with increasing x. […] Extrapolation or interpolation of IC50 values beyond the concentration range studied are not provided.
(§3) Details for the assays and the technology that forms the basis for the assays are known (see C. L. Crespi et al., Analytical Biochemistry 248, 188-190 (1997), and CIL. Crespi et al., J. Pharmacol. Toxicol. Methods 44, 325-331 (2000), and the references mentioend therein). For example, 3-cyano-7-ethoxycoumarin is used as fluorescent substrate for CyP1A2, CYP2C9, CYP2C19 and CYP2D6, 7-methoxy-4-trifluoromethylcoumarin is used for CYP2C9, resorufin benzyl ether for CYP3A4, 3-82-(N,N-diethyl-N-methylammonium)ethyl]-7-methoxy-4-methylcoumarin for CYP2D6.
(§4) By the help of recombinant CyP 450 enzymes, the corresponding IC50 values for the compounds of formula I are determined. […] Description of the Assay: Fluorescence-labelled substrate compounds are incubated with different concentrations of test compound of formula I with recombinant Cytochrome P450 Isoenzymes. […] For details see above in the general description.

Cyp2C9 = biological target: T2, Cyp2C9 (Homo sapiens, UniProt P11712); test: as above; assay type: in vitro ADME; conditions: for IC50: recombinant CyP 450 enzyme, fluorescence-labelled substrate
T2 construct: host or cells: insect cells (named in the general description as the expression system for P450 cDNAs)
From the text: as §1, §2, §3, §4

Cyp3A4 = biological target: T3, Cyp3A4 (Homo sapiens, UniProt P08684); test: as above; assay type: in vitro ADME; conditions: for IC50: recombinant CyP 450 enzyme, fluorescence-labelled substrate
T3 construct: host or cells: insect cells (named in the general description as the expression system for P450 cDNAs)
From the text: as §1, §2, §3, §4

[1] = biological target: T4, Flt-1 VEGF-receptor tyrosine kinase (Homo sapiens, UniProt P17948); test: Test for activity against Flt-1 VEGF-receptor tyrosine kinase; assay type: biochemical; conditions: kinase domain of Flt-1, poly(Glu,Tyr) 4:1, 8 μM [33P]-ATP, 15 minutes at room temperature
T4 construct: 10 ng of the kinase domain of Flt-1
T4 sequence (P17948 827-1158 limits assumed): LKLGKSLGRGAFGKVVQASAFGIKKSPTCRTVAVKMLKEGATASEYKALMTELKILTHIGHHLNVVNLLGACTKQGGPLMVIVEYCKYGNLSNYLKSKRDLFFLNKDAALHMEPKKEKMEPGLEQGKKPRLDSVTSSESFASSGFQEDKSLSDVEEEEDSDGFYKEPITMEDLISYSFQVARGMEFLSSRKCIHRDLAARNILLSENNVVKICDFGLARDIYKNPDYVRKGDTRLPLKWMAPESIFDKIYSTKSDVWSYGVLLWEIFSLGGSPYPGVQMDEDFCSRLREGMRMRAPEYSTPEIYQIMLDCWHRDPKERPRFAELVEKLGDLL
Method: Test for activity against VEGF-receptor tyrosine kinase: the test is conducted using Flt-1 VEGF-receptor tyrosine kinase. The detailed procedure is as follows: 30 μl kinase solution (10 ng of the kinase domain of Flt-1, Shibuya et al., Oncogene 5, 519-24 [1990]) in 20 mM Tris.HCl pH 7.6, 3 mM manganese dichloride (MnCl2), 3 mM magnesium chloride (MgCl2) and 3 μg/ml poly(Glu,Tyr) 4:1 (Sigma, Buchs, Switzerland), 8 μM [^33P]-ATP (0.2 μCi/batch), 1% dimethyl sulfoxide, and 0 to 50 μM of the compound to be tested are incubated together for 15 minutes at room temperature. The reaction is then ended by the addition of 10 μl 0.25 M ethylenediaminetetraacetate (EDTA) pH 7. Using a multichannel dispenser (LAB SYSTEMS, USA), an aliquot of 20 μl is applied to a PVDF (=polyvinyl difluoride) Immobilon P membrane (Millipore, USA), which is incorporated into a Millipore microtitre filter manifold, and connected to a vacuum. Following complete elimination of the liquid, the membrane is washed 4 times successively in a bath containing 0.5% phosphoric acid (H3PO4), incubated for 10 minutes each time while shaking, then mounted in a Hewlett Packard TopCount Manifold and the radioactivity measured after the addition of 10 μl Microscint® (β-scintillation counter liquid; Packard USA). […]
The IC50 values determined are given below, insofar as they have been accurately determined: […]

T2 sequence (P11712 whole entry): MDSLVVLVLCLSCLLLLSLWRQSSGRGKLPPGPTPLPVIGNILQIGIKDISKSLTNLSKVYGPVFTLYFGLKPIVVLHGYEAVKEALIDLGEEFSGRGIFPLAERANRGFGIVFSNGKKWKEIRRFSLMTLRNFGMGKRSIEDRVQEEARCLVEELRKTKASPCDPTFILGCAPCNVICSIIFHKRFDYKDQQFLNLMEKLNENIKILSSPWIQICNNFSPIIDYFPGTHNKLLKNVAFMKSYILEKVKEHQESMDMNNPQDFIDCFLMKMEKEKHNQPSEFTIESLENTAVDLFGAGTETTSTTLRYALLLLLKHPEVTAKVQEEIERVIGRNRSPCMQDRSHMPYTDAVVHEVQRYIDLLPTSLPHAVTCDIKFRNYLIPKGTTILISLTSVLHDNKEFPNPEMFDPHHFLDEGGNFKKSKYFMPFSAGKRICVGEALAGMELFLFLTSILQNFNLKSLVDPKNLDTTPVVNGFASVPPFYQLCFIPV
T3 sequence (P08684 whole entry): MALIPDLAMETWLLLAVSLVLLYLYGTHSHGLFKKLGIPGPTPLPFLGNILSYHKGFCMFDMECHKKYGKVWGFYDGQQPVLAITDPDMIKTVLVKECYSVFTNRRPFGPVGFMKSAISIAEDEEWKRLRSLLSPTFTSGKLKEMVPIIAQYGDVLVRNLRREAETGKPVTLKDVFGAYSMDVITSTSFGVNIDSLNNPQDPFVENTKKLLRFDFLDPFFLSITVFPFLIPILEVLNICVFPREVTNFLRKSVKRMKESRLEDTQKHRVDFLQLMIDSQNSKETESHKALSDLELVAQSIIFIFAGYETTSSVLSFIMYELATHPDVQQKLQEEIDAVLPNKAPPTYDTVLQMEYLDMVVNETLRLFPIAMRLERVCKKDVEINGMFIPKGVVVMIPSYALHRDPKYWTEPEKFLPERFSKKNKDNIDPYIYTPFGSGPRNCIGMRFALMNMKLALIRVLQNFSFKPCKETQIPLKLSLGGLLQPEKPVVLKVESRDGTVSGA

Row | SMILES | IC50 (Cyp2C8) [nM] | IC50 (Cyp2C9) [nM] | IC50 (Cyp3A4) [nM] | IC50 [1] [nM] | also measured
1 | CCc1ccc(Nc2nnc(Cc3ccc(=O)[nH]c3)c3ccccc23)cc1Br [Ex. 8] | > 10000 | 3500 | 2800 | – | lower inhibition when compared with Ex. 14 q from WO 00/59509 (Cyp2C8; ratio of IC50 values): more than two-fold; lower inhibition when compared with Ex. 14 q from WO 00/59509 (Cyp2C9; ratio of IC50 values): more than two-fold; lower inhibition when compared with Ex. 14 q from WO 00/59509 (Cyp3A4; ratio of IC50 values): more than two-fold
2 | COc1cc(Cc2nnc(N[C@H]3CC[C@H](C(C)C)CC3)c3ccccc23)ccn1 [Example 1 d)] | – | – | – | 1200 | –
3 | CC(C)[C@H]1CC[C@H](Nc2nnc(Cc3ccnc(O)c3)c3ccccc23)CC1 [Example 1, trans 1-(4-Isopropyl-cyclohexylamino)4-[2-hydroxy-(pyridin-4-yl)methyl]-phthalazine] | – | – | – | – | melting point: 266 to 267 °C (dec.)
4 | CCc1ccc(Nc2nnc(Cc3ccnc(OC)c3)c3ccccc23)cc1Br [Example 2 d), 1-(3-Bromo-4ethyl-anilino)-4-[2-methoxy-(pyridin-4-yl)-methyl]-phthalazine] | – | – | – | 1900 | –
5 | CCc1ccc(Nc2nnc(Cc3ccncc3)c3ccccc23)cc1Br [WO 00/59509 (Ex. 14 q), reference compound] | 5000 | < 1000 | < 1000 | – | –

Reference: patent publication US7399761B2, “Phthalazine derivatives with angiogenesis inhibiting activity” (Novartis AG, priority 2001, dated 2008)
